Source: US20240209019A1, “COMPOUNDS AND METHODS FOR TREATING HYPERKALEMIA” (ARDELYX, INC., priority 2019, published 2024)

These compounds were tested against HSD2 (Homo sapiens (Human), UniProt P80365) (assay: HSD2 activity: cortisol conversion in human descending colon organoid monolayer cultures (Example 112)). Details: human descending colon epithelial cultures on transwells; 30 minute pre-incubation, then 40 nM cortisol for four hours; cortisol HTRF assay.
Chain of HSD2 (P80365 whole entry): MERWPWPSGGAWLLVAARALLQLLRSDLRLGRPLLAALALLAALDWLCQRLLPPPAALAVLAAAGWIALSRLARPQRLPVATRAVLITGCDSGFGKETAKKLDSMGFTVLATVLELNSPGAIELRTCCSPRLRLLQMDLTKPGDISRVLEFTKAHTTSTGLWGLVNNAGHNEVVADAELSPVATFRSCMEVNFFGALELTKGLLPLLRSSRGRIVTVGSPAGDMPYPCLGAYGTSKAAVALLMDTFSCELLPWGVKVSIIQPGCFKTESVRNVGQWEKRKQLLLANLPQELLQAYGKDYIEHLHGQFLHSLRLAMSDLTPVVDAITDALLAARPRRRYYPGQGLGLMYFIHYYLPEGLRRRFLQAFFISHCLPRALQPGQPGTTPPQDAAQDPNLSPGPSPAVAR
Experimental: Human descending colon epithelial stem cells were cultured as 3D organoids in accordance with Sato et al. Gastroenterology. […] Cultures were differentiated using SBM containing ENRA and 30 nM aldosterone on day 3, and cultures were used for assay on day 6 or 7. Compounds were diluted in DMSO and serial dilutions prepared by titrating in DMSO. Compounds were then diluted into DMEM/F12. Transwell plates containing descending colon cultures were washed twice with DMEM/F12 and compound was added to the apical compartment. Cells were incubated with test compound for 30 minutes at 37° C., 5% CO2 to equilibrate across the cell membrane. A second compound plate was prepared in which the serially diluted compounds in DMSO were diluted into DMEM/F12 containing 40 nM cortisol. Following the 30 minute pre-incubation step, the apical media was aspirated and compounds diluted in DMEM/F12 with 40 nM cortisol were added to the apical side of the transwell. The plate was then incubated for four hours at 37° C., 5% CO2. Cortisol levels were measured using a cortisol HTRF assay kit as described by the manufacturer (Cisbio). Concentration-response curves were then plotted and IC50 (and pIC50) values were determined using least squares non-linear regression.
Inhibition of HSD2 activity as measured by the inhibition of the conversion of cortisone to cortisol.
“2-(3-((1-PEG5K-1H-1,2,3-triazol-4-yl)methoxy)-4-nitrobenzyl) 9-((5-methyl-2-oxo-1,3-dioxol-4-yl)methyl) (2S,4aS,6aS,6bR,8aR,9S,10S,12aS,12bR,14bR)-10-((2,5,8,11-tetraoxatetradecan-14-oyl)oxy)-2,4a,6a,6b,9,12a-hexamethyl-13-oxo-1,2,3,4,4a,5,6,6a,6b,7,8,8a,9,10,11,12,12a,12b,13,14b-icosahydropicene-2,9-dicarboxylate [Compound 605-2]” was tested, and the pIC50 was 6.9. In the case of `CSCC(=O)O[C@H]1CC[C@@]2(C)[C@@H](CC[C@]3(C)[C@@H]2C(=O)C=C2[C@@H]4C[C@@](C)(C(=O)O)CC[C@]4(C)CC[C@]23C)[C@]1(C)C(=O)O` [(2S,4aS,6aS,6bR,8aR,9S,10S,12aS,12bR,14bR)-2,4a,6a,6b,9,12a-hexamethyl-10-{[2-(methylsulfanyl)acetyl]oxy}-13-oxo-1,2,3,4,4a,5,6,6a,6b,7,8,8a,9,10,11,12,12a,12b,13,14b-icosahydropicene-2,9-dicarboxylic acid], the pIC50 is reported as 5.4. With `CC(=O)O[C@H]1CC[C@@]2(C)[C@@H](CC[C@]3(C)[C@@H]2C(=O)C=C2[C@@H]4C[C@@](C)(C(=O)O)CC[C@]4(C)CC[C@]23C)[C@]1(C)C(=O)O` [(2S,4aS,6aS,6bR,8aR,9S,10S,12aS,12bR,14bR)-10-(acetyloxy)-2,4a,6a,6b,9,12a-hexamethyl-13-oxo-1,2,3,4,4a,5,6,6a,6b,7,8,8a,9,10,11,12,12a,12b,13,14b-icosahydropicene-2,9-dicarboxylic acid] the pIC50 was 5.9. Compound `C[C@]1(C(=O)O)CC[C@]2(C)CC[C@]3(C)C(=CC(=O)[C@@H]4[C@@]5(C)CC[C@H](OC(=O)c6ccccc6)[C@@](C)(C(=O)O)[C@@H]5CC[C@]43C)[C@@H]2C1` [(2S,4aS,6aS,6bR,8aR,9S,10S,12aS,12bR,14bR)-10-(benzoyloxy)-2,4a,6a,6b,9,12a-hexamethyl-13-oxo-1,2,3,4,4a,5,6,6a,6b,7,8,8a,9,10,11,12,12a,12b,13,14b-icosahydropicene-2,9-dicarboxylic acid] has a pIC50 of 6.6. In the case of `C[C@]1(C(=O)O)CC[C@]2(C)CC[C@]3(C)C(=CC(=O)[C@@H]4[C@@]5(C)CC[C@H](OC(=O)C6CC6)[C@@](C)(C(=O)O)[C@@H]5CC[C@]43C)[C@@H]2C1` [(2S,4aS,6aS,6bR,8aR,9S,10S,12aS,12bR,14bR)-10-(cyclopropanecarbonyloxy)-2,4a,6a,6b,9,12a-hexamethyl-13-oxo-1,2,3,4,4a,5,6,6a,6b,7,8,8a,9,10,11,12,12a,12b,13,14b-icosahydropicene-2,9-dicarboxylic acid], the pIC50 is reported as 5.8. For `COCO[C@H]1CC[C@@]2(C)[C@@H](CC[C@]3(C)[C@@H]2C(=O)C=C2[C@@H]4C[C@@](C)(C(=O)O)CC[C@]4(C)CC[C@]23C)[C@]1(C)C(=O)O` [(2S,4aS,6aS,6bR,8aR,9S,10S,12aS,12bR,14bR)-10-(methoxymethoxy)-2,4a,6a,6b,9,12a-hexamethyl-13-oxo-1,2,3,4,4a,5,6,6a,6b,7,8,8a,9,10,11,12,12a,12b,13,14b-icosahydropicene-2,9-dicarboxylic acid], the pIC50 was 5.1. Compound `CCOC(=O)c1cnn([C@H]2CC[C@@]3(C)[C@@H](CC[C@]4(C)[C@@H]3C(=O)C=C3[C@@H]5C[C@@](C)(C(=O)O)CC[C@]5(C)CC[C@]34C)[C@]2(C)C(=O)O)c1OC` [(2S,4aS,6aS,6bR,8aR,9S,10S,12aS,12bR,14bR)-10-[4-(ethoxycarbonyl)-5-methoxy-1H-pyrazol-1-yl]-2,4a,6a,6b,9,12a-hexamethyl-13-oxo-1,2,3,4,4a,5,6,6a,6b,7,8,8a,9,10,11,12,12a,12b,13,14b-icosahydropicene-2,9-dicarboxylic acid] has a pIC50 of 5.6. `C[C@]1(C(=O)O)CC[C@]2(C)CC[C@]3(C)C(=CC(=O)[C@@H]4[C@@]5(C)CC[C@H](OC(=O)CO)[C@@](C)(C(=O)O)[C@@H]5CC[C@]43C)[C@@H]2C1` [(2S,4aS,6aS,6bR,8aR,9S,10S,12aS,12bR,14bR)-10-[(2-hydroxyacetyl)oxy]-2,4a,6a,6b,9,12a-hexamethyl-13-oxo-1,2,3,4,4a,5,6,6a,6b,7,8,8a,9,10,11,12,12a,12b,13,14b-icosahydropicene-2,9-dicarboxylic acid] showed a pIC50 of 5.9.
